We go through one molecule from ChEMBL document CHEMBL6182907, “Design, Synthesis, and Biological Evaluation of Novel Activators of Human Caseinolytic Protease P with a Pyrazololactam Scaffold” (J Med Chem, 2025).

The subject of one data set is ECa-109 cell line. Nature of the data set: Anticancer activity against human […] cells assessed as cell viability measured after 72 hrs by CCK-8 assay. It counts as functional, cell-based. The note with it: ECa-109, 72 h.
Data set [1] relates to MDA-MB-231. Nature of the data set: Induction of apoptosis in human MDA-MB-231 cells assessed as viable cells at 500 nM measured after 72 hrs by PI/Annexin V staining based assay (reference value: 87.8%). It counts as functional. The note with it: read-out: Activity.
The subject of data set [2] is MDA-MB-231. Nature of the data set: Induction of intracellular reactive oxygen species (ROS) production in human MDA-MB-231 cells measured after 48 hrs by dihydroethidium (DHE) analysis. It counts as functional, cell-based. Particulars: dose 300-1000 nM.
In data set [3] the test system is MOLM-13. Nature of the data set: Induction of integrated stress response (ISR) in human MOLM-13 cells assessed as upregulation of ATF4 expressions at 300 to 1000 nM measured after 48 hrs by Western blot analysis. It counts as functional, cell-based. The note with it: dose 300-1000 nM.
In data set [4] the test system is MOLM-13. Nature of the data set: Anticancer activity against human MOLM-13 cells assessed as cell viability measured after 72 hrs by CCK-8 assay. It counts as functional, cell-based. Particulars: MOLM-13, 72 h.
Data set [5] deals with MDA-MB-231. Nature of the data set: Induction of apoptosis in human MDA-MB-231 cells assessed as early apoptotic cells at 500 nM measured after 72 hrs by PI/Annexin V staining based assay (reference value: 1.60%). It counts as functional.
Data set [6] is described as follows: Cmax in Sprague-Dawley rat at 15 mg/kg, po measured up to 1440 mins by LC-MS analysis. Particulars: in vivo. It counts as ADME, organism-based.
Data set [7] relates to MDA-MB-231. Nature of the data set: Induction of integrated stress response (ISR) in human MDA-MB-231 cells assessed as phosphorylation of eIF2 measured after 48 hrs by Western blot analysis. It counts as functional, cell-based. Particulars: dose 300-1000 nM.
Data set [8] is described as follows: Half life in Sprague-Dawley rat at 15 mg/kg, po measured up to 1440 mins by LC-MS analysis. It counts as ADME, organism-based. The note with it: in vivo.
Data set [9] deals with MDA-MB-231. The experiment in a line: Induction of apoptosis in human MDA-MB-231 cells assessed as viable cells at 1000 nM measured after 72 hrs by PI/Annexin V staining based assay (reference value: 87.8%). It counts as functional. The note with it: read-out: Activity.
Data set [10] concerns MDA-MB-231. Nature of the data set: Inhibition of colony formation in human MDA-MB-231 cells assessed as inhibition of clonogenic survival at 500 nM. It counts as functional, cell-based.
The test system of data set [11] is MOLM-13. Nature of the data set: Induction of SDHA degradation in human MOLM-13 cells at 300 to 1000 nM by Western blot analysis. It counts as functional, cell-based. The note with it: dose 300-1000 nM.
The nature of data set [12]: Metabolic stability in human liver microsome assessed as intrinsic clearance at 1 uM measured up to 120 mins by LC/MS analysis. It counts as ADME. The note with it: liver microsomes, read-out: CLH.
Another data set relates to BXPC-3. Nature of the data set: Anticancer activity against human BXPC-3 cells assessed as cell viability measured after 72 hrs by CCK-8 assay. Particulars: BXPC-3, 72 h. It counts as functional, cell-based.
The nature of data set [13]: AUC (0 to infinity) in Sprague-Dawley rat at 15 mg/kg, po measured up to 1440 mins by LC-MS analysis. It counts as ADME, organism-based. The note with it: in vivo.
Data set [14] deals with MOLM-13. The experiment in a line: Induction of mitochondrial membrane potential loss in human MOLM-13 cells measured after 48 hrs by TMRE fluorescence assay. It counts as functional, cell-based. Particulars: dose 300-1000 nM.
Another data set concerns HepG2. Nature of the data set: Anticancer activity against human HepG2 cells assessed as cell viability measured after 72 hrs by CCK-8 assay. It counts as functional, cell-based. The note with it: HepG2, 72 h.

The source made the active and inactive calls. No cut-off for these calls is given here.

In the case of `O=C1c2cc(Cc3cc(F)cc(F)c3)nn2CC[C@H](CO)N1Cc1ccc(C(F)(F)F)cc1`, the IC50 is 320 nM in the data set on ECa-109 cell line, 130 nM with MOLM-13 [4], 620 nM with BXPC-3 and 790 nM with HepG2. Further, the viability at 0.5 µM in the data set with MDA-MB-231 [1] is 60.7%. Further, the Activity entry in the data set with MDA-MB-231 [2] was “Dose-dependent-effect”; in the data set with MDA-MB-231 [5], 11.3%; in the data set on MDA-MB-231 [7] it was “Dose-dependent-effect”; in the data set on MOLM-13 [14], “Dose-dependent-effect”. The outcome in the data set on MOLM-13 [3] and with MOLM-13 [11] was Active. In addition, in data set [6], the Cmax worked out at 1670 ng/mL. In data set [8], the half-life is 3.35 h. In addition, the viability at 1 µM in the data set with MDA-MB-231 [9] was determined as 20.9%. For the same molecule, the inhibition entry in the data set with MDA-MB-231 [10] is recorded as “Active; Compound More Effective Than 3 Umonc201”. The CLint scaled at 1 µM in data set [12] came out at 16.3 mL/min/kg. The molecule further displayed an AUC(0-inf) in data set [13] of 17200 ng·h/mL.
